This note sets out measurements from patent US5994629A, “Positive selection” (priority 1991, dated 1999).

SMILES strings stand for the structures. Structures can show the parent of a compound that is named as a salt.

Data set [1] has as its system leaf discs of tobacco with (GUS+) introduced β-glucuronidase genes. Format: cell-based, Nicotiana tabacum 'Wisconsin 38'. To be noted: test compounds at several concentrations up to 250 μM in MSO.
The test system of data set [2] is leaf discs of tobacco without (GUS-) introduced β-glucuronidase genes. Format: cell-based, Nicotiana tabacum 'Wisconsin 38'. To be noted: test compounds at several concentrations up to 250 μM in MSO.
Data set [3] has as its target β-glucuronidase from E. coli (Escherichia coli, UniProt P05804). As to the kind of experiment: Hydrolysis by β-glucuronidase (GUS), HPLC/TLC. Format: biochemical. To be noted: for Hydrolysis by β-glucuronidase (GUS), result in words: 50 mM sodium phosphate buffer pH 7.0, 37° C., HPLC/TLC. As for the experimental part:
[…] […] This confirms the identity of the product as a conjugate of BA and β-D-glucuronic acid.
[…] The presence of hydrolysis products is then determined using HPLC and TLC.

Data set [4] relates to explants transgenic for the mannose 6-phosphate isomerase gene. Briefly: Shoot regeneration on mannose, sucrose and methyl-3-O-glucose, Man-6-P-isomerase. Format: cell-based. Conditions: Man-6-P-isomerase.
For the next data set, the system named is Wild type explants. Briefly: Shoot regeneration on mannose, sucrose and methyl-3-O-glucose, wild type. Format: cell-based. To be noted: Wild type.
The next data set has as its system explants. As to the kind of experiment: Inhibition of the toxicity of mannose by methyl-3-O-glucose. Format: cell-based. The source says:
Example 25 is repeated except that the selection/regeneration substrate is supplemented with methyl 3-0-glucose (MOG) at the concentrations indicated in Table 25. The percentage of live explants is registered after 8 weeks.

Data set [5] concerns plant material transgenic for the mannose 6-phosphate isomerase gene. Briefly: Effect of methyl-3-O-glucose on selection of transgenic shoots on mannose. Format: cell-based. Conditions: mannose 15 g/l, no sucrose. The source says:
The transformed plant material is transgenic for the mannose 6-phosphate isomerase gene. After 21 days the selected shoots are harvested.

[6] abbreviates: MOG 2.5, mannose 0 g/l, sucrose 10 g/l.
Setting [7] is: MOG 2.5, mannose 5 g/l, sucrose 0 g/l.
The mark [8] stands for this setting: MOG 2.5, mannose 5 g/l, sucrose 10 g/l.
Setting [9] is: MOG 2.5, mannose 10 g/l, sucrose 0 g/l.
[10] abbreviates: MOG 2.5, mannose 10 g/l, sucrose 10 g/l.
Where [11] appears, read: MOG 2.5, mannose 20 g/l, sucrose 0 g/l.
Setting [12] is: MOG 2.5, mannose 20 g/l, sucrose 10 g/l.
Where [13] appears, read: MOG 5.0, mannose 0 g/l, sucrose 0 g/l.
Setting [14] is: MOG 5.0, mannose 0 g/l, sucrose 10 g/l.
Setting [15] is: MOG 5.0, mannose 5 g/l, sucrose 0 g/l.
Where [16] appears, read: MOG 5.0, mannose 5 g/l, sucrose 10 g/l.
Setting [17] is: MOG 5.0, mannose 10 g/l, sucrose 0 g/l.
Where [18] appears, read: MOG 5.0, mannose 10 g/l, sucrose 10 g/l.
[19] abbreviates: MOG 5.0, mannose 20 g/l, sucrose 0 g/l.
The mark [20] stands for this setting: MOG 5.0, mannose 20 g/l, sucrose 10 g/l.

β-glucuronidase from E. coli, sequence (P05804 whole entry, looked up): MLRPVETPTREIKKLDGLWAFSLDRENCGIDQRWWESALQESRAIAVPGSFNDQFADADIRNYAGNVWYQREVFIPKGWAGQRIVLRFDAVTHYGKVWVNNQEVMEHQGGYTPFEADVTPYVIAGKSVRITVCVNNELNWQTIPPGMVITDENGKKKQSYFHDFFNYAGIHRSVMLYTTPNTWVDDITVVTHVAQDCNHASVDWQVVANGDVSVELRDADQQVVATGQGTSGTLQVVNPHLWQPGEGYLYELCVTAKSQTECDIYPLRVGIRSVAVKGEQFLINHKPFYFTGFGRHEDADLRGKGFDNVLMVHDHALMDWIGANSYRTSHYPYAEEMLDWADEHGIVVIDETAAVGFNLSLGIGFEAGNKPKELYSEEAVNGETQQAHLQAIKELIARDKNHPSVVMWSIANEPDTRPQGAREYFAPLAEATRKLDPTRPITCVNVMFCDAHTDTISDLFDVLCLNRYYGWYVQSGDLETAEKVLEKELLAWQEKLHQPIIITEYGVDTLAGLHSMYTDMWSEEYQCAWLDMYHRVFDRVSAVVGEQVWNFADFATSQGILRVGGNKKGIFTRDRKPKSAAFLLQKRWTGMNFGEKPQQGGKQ

For the molecule `O=C(O)[C@H]1OC(O)[C@H](O)[C@@H](O)[C@@H]1O` (some centres unmarked) [Glucuronic acid], the “Shoot formation, GUS+” value in data set [1] is given as “- ("-" means no shoot formation at concentrations below 250 μM)”. Besides, the “Shoot formation, GUS-” value in data set [2] was “- ("-" means no shoot formation at concentrations below 250 μM)”.
Turning to `CC(C)=CCNc1ncn([C@@H]2O[C@H](C(=O)[O-])[C@@H](O)[C@H](O)[C@H]2O)c2ncnc1-2.[Na+]` [IP3GN sodium salt, 3-β-D-glucopyranuronosyl-6-(3-methyl-but-2-enylamino)purine, sodium salt], the “Shoot formation, GUS+” value in data set [1] is listed as “+ ("+" means shoot formation at concentrations below 250 μM)”. Moreover, the “Hydrolysis by β-glucuronidase (GUS), result in words” value in data set [3] is “removal of the UV spot corresponding to IP3GN”. Also, the “Shoot formation, GUS-” value in data set [2] is “+ ("+" means shoot formation at concentrations below 250 μM)”.
In the case of `CC(C)=CCNc1ncnc2[nH]c(S[C@@H]3O[C@H](C(=O)O)[C@@H](O)[C@H](O)[C@H]3O)nc12` [IP8SGN sodium salt, 6-(3-methyl-but-2-enylamino)purine-8-yl-1-thio-β-D-glucopyranuronic acid, sodium salt], the “Shoot formation, GUS+” value in data set [1] was “+ ("+" means shoot formation at concentrations below 250 μM)”. Besides, the “conversion to the aglycone by GUS” value in data set [3] (1 mg/ml, 2500 units GUS, 24 hours, 37° C., TLC) is on record as > 95%. The “Shoot formation, GUS-” value in data set [2] was “+ ("+" means shoot formation at concentrations below 250 μM)”.
`CO[C@H]1[C@H](O)[C@@H](CO)OC(O)[C@@H]1O` (some centres unmarked) [MOG, methyl 3-0-glucose]: the “regenerated shoots as a percentage of shoots on substrates without mannose and methyl-3-0-glucose” value in data set [4] (MOG 2.5, mannose 0 g/l, sucrose 0 g/l) worked out at 0; in data set [4] (setting [6]), 0; in data set [4] (setting [7]), 7; in data set [4] (setting [8]), 64; in data set [4] (setting [9]) it was 64; in data set [4] (setting [10]), 86. In addition, the “regenerated shoots as a percentage of shoots on substrates without mannose and methyl-3-0-glucose” value in data set [4] (setting [11]) is reported as 107; in data set [4] (setting [12]), 200; in data set [4] (setting [13]) it was 0; in data set [4] (setting [14]), 0; in data set [4] (setting [15]) it was 0; in data set [4] (setting [16]), 64. For the same molecule, the “regenerated shoots as a percentage of shoots on substrates without mannose and methyl-3-0-glucose” value in data set [4] (setting [17]) was determined as 28; in data set [4] (setting [18]), 36; in data set [4] (setting [19]), 128; in data set [4] (setting [20]), 86; in the data set with Wild type explants (MOG 2.5, mannose 0 g/l, sucrose 0 g/l, 11 weeks) it was 0; in the data set on Wild type explants (setting [6]), 53. For the same molecule, the “regenerated shoots as a percentage of shoots on substrates without mannose and methyl-3-0-glucose” value stood at 0 in the data set with Wild type explants (setting [7]); 6 with Wild type explants (setting [8]); 0 in the data set with Wild type explants (setting [9]); 0 in the data set with Wild type explants (setting [10]); 0 in the data set with Wild type explants (setting [11]); 0 in the data set on Wild type explants (setting [12]). Besides, the “regenerated shoots as a percentage of shoots on substrates without mannose and methyl-3-0-glucose” value was determined as 0 in the data set with Wild type explants (setting [13]); 17 in the data set with Wild type explants (setting [14]); 0 in the data set with Wild type explants (setting [15]); 41 in the data set on Wild type explants (setting [16]); 0 in the data set with Wild type explants (setting [17]); 0 in the data set on Wild type explants (setting [18]). Further, the “regenerated shoots as a percentage of shoots on substrates without mannose and methyl-3-0-glucose” value in the data set on Wild type explants (setting [19]) and in the data set on Wild type explants (setting [20]) was 0 each time. In addition, the “percentage of live explants” value is listed as 13 in the data set with explants (MOG 5 g/l, mannose 0 g/l, sucrose 0 g/l); 100 in the data set on explants (MOG 5 g/l, mannose 0 g/l, sucrose 10 g/l); 54 with explants (MOG 5 g/l, mannose 5 g/l, sucrose 0 g/l); 100 in the data set with explants (MOG 5 g/l, mannose 5 g/l, sucrose 10 g/l); 0 in the data set with explants (MOG 5 g/l, mannose 10 g/l, sucrose 0 g/l); 5 in the data set on explants (MOG 5 g/l, mannose 10 g/l, sucrose 10 g/l). Further, the “percentage of live explants” value in the data set on explants (MOG 10 g/l, mannose 0 g/l, sucrose 0 g/l) came to 47; with explants (MOG 10 g/l, mannose 0 g/l, sucrose 10 g/l), 100; with explants (MOG 10 g/l, mannose 5 g/l, sucrose 0 g/l) it was 82; in the data set on explants (MOG 10 g/l, mannose 5 g/l, sucrose 10 g/l), 100; with explants (MOG 10 g/l, mannose 10 g/l, sucrose 0 g/l), 9; in the data set on explants (MOG 10 g/l, mannose 10 g/l, sucrose 10 g/l), 41. The “percentage of live explants” value in the data set on explants (MOG 20 g/l, mannose 0 g/l, sucrose 0 g/l) is on record as 50; in the data set on explants (MOG 20 g/l, mannose 0 g/l, sucrose 10 g/l), 100; in the data set with explants (MOG 20 g/l, mannose 5 g/l, sucrose 0 g/l) it was 98; with explants (MOG 20 g/l, mannose 5 g/l, sucrose 10 g/l), 100; with explants (MOG 20 g/l, mannose 10 g/l, sucrose 0 g/l), 88; in the data set with explants (MOG 20 g/l, mannose 10 g/l, sucrose 10 g/l) it was 100. Moreover, the “GUS+ shoots/explant” value in data set [5] (MOG 2.5 g/l) was found to be 0.2; in data set [5] (MOG 5.0 g/l), 1.0; in data set [5] (MOG 10 g/l), 0.5; in data set [5] (MOG 15 g/l), 0.6. In addition, the “GUS+ shoots/sel. shoots (%)” value in data set [5] (MOG 2.5 g/l) is recorded as 57%; in data set [5] (MOG 5.0 g/l) it was 81%; in data set [5] (MOG 10 g/l) it was 89%; in data set [5] (MOG 15 g/l) it was 53%.
`C/C(=C\CNc1ncnc2[nH]cnc12)CO[C@@H]1O[C@H](C(=O)O)[C@@H](O)[C@H](O)[C@H]1O` [ZOGN sodium salt, O-β-D-glucopyranuronosylzeatin, sodium salt]: the “Shoot formation, GUS+” value in data set [1] was “+ ("+" means shoot formation at concentrations below 250 μM)”. Also, the “Hydrolysis by β-glucuronidase (GUS), result in words” value in data set [3] is given as “virtually complete conversion to trans zeatin”. The “Shoot formation, GUS-” value in data set [2] is recorded as “+ ("+" means shoot formation at concentrations below 250 μM)”.
As to `C/C(=C\CNc1ncnc2[nH]cnc12)CO` [Zeatin], the “Shoot formation, GUS+” value in data set [1] is “+ ("+" means shoot formation at concentrations below 250 μM)”. Moreover, the “Shoot formation, GUS-” value in data set [2] is given as “+ ("+" means shoot formation at concentrations below 250 μM)”.
